Activity calls are given as the source filed them.
Assays:
Type in all cases: functional, organism-based
Blatta orientalis = assay: Insecticidal activity against Blatta orientalis
Musca domestica = assay: Insecticidal activity against Musca domestica (house fly)
Sitophilus granarius = assay: Insecticidal activity against Sitophilus granarius (granary weevil)
Tetranychus urticae = assay: Insecticidal activity against Tetranychus urticae (two-spotted spider mite)

Measured: Activity

CCOC(=C(Br)Br)c1ccc(Cl)cc1Cl
inactive: all assays above

CCOC(=CBr)c1ccc(Cl)cc1Cl (mixture of isomers)
inactive: all assays above

Source: ChEMBL document CHEMBL3045449, “2-Bromo-1-ethoxy-(2,4-dichloro)styrene and 2,2-dibromo-1-ethoxy-(2,4-dichloro)styrenethe two impurities of bromfenvinphos; their identification, synthesis and full characterization” (J Pestic Sci, 2010)
